Measured values taken from patent US20110046056A1, “APOA-1 PEPTIDE MIMETICS” (priority 2007, published 2011).
Where two headings read alike, the source gives them in different places. *1 amine or outer side, *2 acyl side, *3 side chain or, on linkers, in order; H or OH if unused. Where a SMILES comes first, the peptide text is derived from it. Bridges are numbered along the chain shown (N, C = ends). Where no end group is shown, it is not given here. [ ]: non-standard residue; d: D form. R5Me = hydrocarbon side chain-substituted amino acid; dNle(6-ylidene) = O=C([C@@H](CCCC=[*:3])N[*:1])[*:2]; X2 = O=C([C@@H](CCCCC=[*:3])N[*:1])[*:2]; X3 = O=C([C@H](CCCCCC=[*:3])N[*:1])[*:2]; Ala(5-hexenyl) = C=CCCCCC[C@H](N)C(=O)O; dNle(6-vinyl) = C=CCCCC[C@@H](N)C(=O)O; R5 = C=CCCC[C@@](C)(N)C(=O)O; 12H3 = not defined here

Key:
[1] = target: T1, ABCA1 cholesterol transporter protein (Mus musculus, UniProt P41233); experiment: ABCA1-dependent cholesterol efflux from RAW mouse macrophage cells (in vitro RCT assay); assay type: cell-based; details: for EC50: read-out: EC50 in the cholesterol efflux assay (RCT in vitro assay)
T1 construct: endogenous in cells
T1 sequence (P41233 whole entry): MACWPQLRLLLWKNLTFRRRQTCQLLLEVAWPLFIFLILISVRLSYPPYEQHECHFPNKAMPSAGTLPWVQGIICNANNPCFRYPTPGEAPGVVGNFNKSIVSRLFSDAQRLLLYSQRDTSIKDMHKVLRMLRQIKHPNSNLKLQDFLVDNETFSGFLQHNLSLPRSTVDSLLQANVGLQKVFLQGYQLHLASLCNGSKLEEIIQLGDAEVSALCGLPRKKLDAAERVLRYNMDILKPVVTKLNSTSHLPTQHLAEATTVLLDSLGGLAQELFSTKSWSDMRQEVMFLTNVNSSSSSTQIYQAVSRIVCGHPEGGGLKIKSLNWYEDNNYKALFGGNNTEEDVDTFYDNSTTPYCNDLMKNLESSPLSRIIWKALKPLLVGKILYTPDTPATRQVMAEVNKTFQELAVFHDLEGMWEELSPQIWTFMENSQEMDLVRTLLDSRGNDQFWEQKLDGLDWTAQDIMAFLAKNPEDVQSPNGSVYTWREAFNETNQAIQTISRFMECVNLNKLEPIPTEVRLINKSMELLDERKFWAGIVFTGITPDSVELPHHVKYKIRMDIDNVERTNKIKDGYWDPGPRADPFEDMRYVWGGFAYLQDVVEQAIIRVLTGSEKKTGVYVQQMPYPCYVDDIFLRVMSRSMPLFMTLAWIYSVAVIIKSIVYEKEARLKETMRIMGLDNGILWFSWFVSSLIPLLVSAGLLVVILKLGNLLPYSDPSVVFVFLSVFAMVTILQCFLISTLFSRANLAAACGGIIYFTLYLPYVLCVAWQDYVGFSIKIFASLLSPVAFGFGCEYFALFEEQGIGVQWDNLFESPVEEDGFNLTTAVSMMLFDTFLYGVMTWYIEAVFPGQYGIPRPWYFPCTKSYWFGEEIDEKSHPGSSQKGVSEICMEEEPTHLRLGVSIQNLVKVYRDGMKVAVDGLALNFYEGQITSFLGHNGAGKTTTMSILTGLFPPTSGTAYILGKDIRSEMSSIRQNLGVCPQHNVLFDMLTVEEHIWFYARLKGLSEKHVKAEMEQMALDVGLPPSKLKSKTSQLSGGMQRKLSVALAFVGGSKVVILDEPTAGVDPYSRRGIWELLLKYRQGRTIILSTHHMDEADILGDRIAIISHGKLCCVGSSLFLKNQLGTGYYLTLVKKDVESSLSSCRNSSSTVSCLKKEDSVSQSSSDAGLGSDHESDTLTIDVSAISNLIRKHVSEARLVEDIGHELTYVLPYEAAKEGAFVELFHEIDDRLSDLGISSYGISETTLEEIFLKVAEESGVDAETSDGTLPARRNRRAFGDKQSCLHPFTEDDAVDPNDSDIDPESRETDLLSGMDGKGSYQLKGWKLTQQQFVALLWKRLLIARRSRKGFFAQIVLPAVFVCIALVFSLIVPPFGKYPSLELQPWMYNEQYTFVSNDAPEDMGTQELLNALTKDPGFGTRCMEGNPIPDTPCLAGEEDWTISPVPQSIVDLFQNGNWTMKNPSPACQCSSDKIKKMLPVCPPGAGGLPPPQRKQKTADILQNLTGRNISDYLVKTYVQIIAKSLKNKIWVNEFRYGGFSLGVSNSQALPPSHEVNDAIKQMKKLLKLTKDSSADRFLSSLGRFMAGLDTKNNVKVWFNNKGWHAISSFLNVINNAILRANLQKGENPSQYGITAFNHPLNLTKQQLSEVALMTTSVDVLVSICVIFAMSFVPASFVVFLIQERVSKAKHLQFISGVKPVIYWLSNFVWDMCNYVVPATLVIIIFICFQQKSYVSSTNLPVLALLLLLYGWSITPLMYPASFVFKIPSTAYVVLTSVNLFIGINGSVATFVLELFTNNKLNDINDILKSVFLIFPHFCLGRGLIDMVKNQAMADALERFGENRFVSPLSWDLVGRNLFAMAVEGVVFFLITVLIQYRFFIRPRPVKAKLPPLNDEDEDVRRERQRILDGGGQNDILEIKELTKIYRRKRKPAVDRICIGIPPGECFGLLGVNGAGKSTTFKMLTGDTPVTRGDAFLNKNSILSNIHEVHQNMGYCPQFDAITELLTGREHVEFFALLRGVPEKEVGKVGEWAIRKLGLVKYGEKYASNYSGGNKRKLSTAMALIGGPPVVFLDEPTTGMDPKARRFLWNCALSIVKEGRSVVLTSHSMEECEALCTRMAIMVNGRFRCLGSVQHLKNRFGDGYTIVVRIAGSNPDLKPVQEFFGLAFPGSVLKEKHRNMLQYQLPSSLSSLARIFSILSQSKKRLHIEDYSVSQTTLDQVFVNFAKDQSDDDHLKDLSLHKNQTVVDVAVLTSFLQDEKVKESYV
Outline: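 RAW macrophages labelled with ^3H-cholesterol (5 μCi/ml) 24 h, equilibrated overnight serum-free, then given eight-point peptide titrations 24 h with or without 150 μM CPT-cAMP. Percent efflux = medium counts/(medium + lysate); plain-medium efflux subtracted from cAMP value gives ABCA1-dependent efflux, fitted for EC50.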

[2] = Lipid (liposome) solubilization, turbidimetric method; assay type: biochemical
Procedure: As noted above, the other important parameter was phospholipid solubilization. A turbidimetric method is used to determine the solubilization capacity of peptides of the present invention. First, a three-fold serial titration of the peptide is prepared in a polypropylene v-shaped 96-well plate. The eight-point titration is done in phosphate-buffered saline (PBS, pH 7.5) or DMSO from a starting concentration that allows for addition to an optically-clear bottomed assay plate in <100 μl aliquots to yield a starting concentration of 500 μM in 200 μl final well volume. PBS is then added to each well to bring the total volume to 100 μl. Any bubbles in the wells must be dispersed to avoid erroneous results. Next, from a turbid but homogeneous emulsion of dimyristoyl phosphatidylcholine at 0.5 mg/ml in PBS, 100 μl is added to each well in the assay plate, the plate is inserted into the NEPHELOSTAR (BMG LABTECH INSTRUMENTS), and readings are taken immediately and every 15 minutes over 2 hours.
A true 0-point value is calculated by averaging the readings of the wells with phospholipid but no peptide. For each peptide concentration, a percent decrease in turbidity is calculated by subtracting the 0-point value from the corresponding 30 and 120 minute readings and dividing by that 0-point value. Finally the EC50 values for both time points are determined using PRISM software (Table 2).

[3] = test system: atheroma in ApoE-deficient mice; experiment: Atheroma volume in ApoE-deficient mice by magnetic resonance imaging; assay type: in vivo, mouse; details: 20 mg per kg subcutaneously once daily; after 5 weeks of treatment; compared to vehicle-treated apoE-deficient mice; MRI
Excerpt: The ultimate goal of developing these mimetic peptides was for the acute and chronic treatment of atherosclerotic lesions in human patients.

[4] = test system: human red blood cells; experiment: Red blood cell (RBC) lysis assay; assay type: cell-based
Procedure: The RBC lysis assay has been described previously (Kurtz, M. B. et al. (1994); Wang, J. et al., PNAS 104 (18), 7612-7616 (2007)). Basically, human erythrocytes are collected in a vacutainer tube with EDTA from human donors. Two ml of the freshly drawn whole blood is added to 6 ml of sterile saline and gently mixed then centrifuged at 5° C. for 5 minutes at 2000 rpm. The supernatant is discarded and the human red blood cells are resuspended with 6 ml of sterile saline and centrifuged again at 5° C. for 5 minutes at 2000 rpm. This procedure is repeated 2 times. A three percent suspension of the washed red blood cells is prepared by adding 0.3 ml of the washed red blood cells to 9.7 ml of sterile saline. The final concentration of test peptide ranging 160-2.5 (or 150-2.3) μM in 100 μl sterile saline containing 3.2% Me2SO is prepared in 96-well MICROTEST U-bottom plates (BECTON DICKINSON, BD-353227). The RBC lysis is initiated by addition of 5 μl of 3% washed human red blood cell suspension to the each well in the plates. The plates are incubated overnight at room temperature, then centrifuged at 2000 rpm for 5 minutes and read immediately. Hemolysis of red blood cells is indicated by complete or partial clearing (lysis) of the supernatants with either no or a rough RBC pellet in the bottom of the wells. […]

[5] = target: T2, ATP-binding cassette transporter A1 (ABCA1) (mouse, UniProt P41233 1-2261); experiment: cell-based or functional assay
T2 sequence (P41233 whole entry): as above

[6] = target: T2, ATP-binding cassette transporter A1 …; experiment: cell-based or functional assay; remark: listed apart in the source
[7] = read-out: IC50 in the liposome solubilization assay

PVLDEFRES5HLNES5HLEALKQKLK (Ac-PVLDEFRE[S5H]LNE[S5H]LEALKQKLK; not fully specified (C-terminus)) [SEQ ID NO 15]
activity in the cholesterol efflux / in vitro RCT assay, in words [1]: very low to no activity | lipid binding / ability to clear liposome turbidity, in words [2]: good lipid binding

C=CCCCCC[C@H](NC(=O)[C@H](CCC(=O)O)NC(=O)[C@H](CC(N)=O)NC(=O)[C@H](CC(C)C)NC(=O)[C@H](CCCCN)NC(=O)[C@H](CCC(=O)O)NC(=O)[C@H](CCCNC(=N)N)NC(=O)[C@H](CCCCCC=C)NC(=O)[C@H](CCC(=O)O)NC(=O)[C@H](CC(=O)O)NC(=O)[C@H](CC(C)C)NC(=O)[C@@H](NC(=O)[C@@H]1CCCN1C(C)=O)C(C)C)C(=O)N[C@@H](CC(C)C)C(=O)N[C@@H](CCC(=O)O)C(=O)N[C@@H](C)C(=O)N[C@@H](CC(C)C)C(=O)N[C@@H](CCCCN)C(=O)N[C@@H](CCC(N)=O)C(=O)N[C@@H](CCCCN)C(=O)N[C@@H](CC(C)C)C(=O)N[C@@H](CCCCN)C(N)=O [SEQ ID NO 43, PVLDES7HREKLNES7HLEALKQKLK] (Ac-PVLDE[Ala(5-hexenyl)]REKLNE[Ala(5-hexenyl)]LEALKQKLK-NH2; C-terminus assumed)
EC50 [1]: 0.3 µM | atheroma volume [3]: significant reduction

PVLDEFRER5MELNER5MELEALKQKLK (Ac-PVLDEFRE[R5]LNE[R5]LEALKQKLK; not fully specified (C-terminus); bridges not given here) [SEQ ID NO 16]
activity in the cholesterol efflux / in vitro RCT assay, in words [1]: very low to no activity | lipid binding / ability to clear liposome turbidity, in words [2]: good lipid binding

C=CCCCCC[C@H](NC(=O)[C@H](CCC(=O)O)NC(=O)[C@H](CC(N)=O)NC(=O)[C@H](CC(C)C)NC(=O)[C@H](CCCCN)NC(=O)[C@H](CCC(=O)O)NC(=O)[C@H](CCCNC(=N)N)NC(=O)[C@@H](CCCCC=C)NC(=O)[C@H](CCC(=O)O)NC(=O)[C@H](CC(=O)O)NC(=O)[C@H](CC(C)C)NC(=O)[C@@H](NC(=O)[C@@H]1CCCN1C(C)=O)C(C)C)C(=O)N[C@@H](CC(C)C)C(=O)N[C@@H](CCC(=O)O)C(=O)N[C@@H](C)C(=O)N[C@@H](CC(C)C)C(=O)N[C@@H](CCCCN)C(=O)N[C@@H](CCC(N)=O)C(=O)N[C@@H](CCCCN)C(=O)N[C@@H](CC(C)C)C(=O)N[C@@H](CCCCN)C(N)=O [SEQ ID NO 13, PVLDER6HREKLNES7HLEALKQKLK] (Ac-PVLDE[dNle(6-vinyl)]REKLNE[Ala(5-hexenyl)]LEALKQKLK-NH2; C-terminus assumed)
IC50 [2, 7]: 25 µM

O=C(N[C@H](CO)[C@H](O)c1ccc([N+](=O)[O-])cc1)C(Cl)Cl [Chloramphenicol]
minimum lytic concentration (MLC) [4]: > 64 µg/mL

Ac-PVLDEFREKLNEELEALKQKLK-NH2 [SEQ ID NO 1, reference compound]
activity in the cholesterol efflux / in vitro RCT assay, in words [1]: inactive | lipid binding / ability to clear liposome turbidity, in words [2]: inactive

C=CCCCCC[C@H](NC(=O)[C@H](CCC(=O)O)NC(=O)[C@H](CC(=O)O)NC(=O)[C@H](CC(C)C)NC(=O)[C@@H](NC(=O)[C@@H]1CCCN1C(C)=O)C(C)C)C(=O)N[C@@H](CCCNC(=N)N)C(=O)N[C@@H](CCC(=O)O)C(=O)N[C@@H](CCCCN)C(=O)N[C@@H](CC(C)C)C(=O)N[C@@H](CC(N)=O)C(=O)N[C@@H](CCC(=O)O)C(=O)N[C@H](CCCCC=C)C(=O)N[C@@H](CC(C)C)C(=O)N[C@@H](CCC(=O)O)C(=O)N[C@@H](C)C(=O)N[C@@H](CC(C)C)C(=O)N[C@@H](CCCCN)C(=O)N[C@@H](CCC(N)=O)C(=O)N[C@@H](CCCCN)C(=O)N[C@@H](CC(C)C)C(=O)N[C@@H](CCCCN)C(N)=O [SEQ ID NO 10, PVLDES7HREKLNER6HLEALKQKLK] (Ac-PVLDE[Ala(5-hexenyl)]REKLNE[dNle(6-vinyl)]LEALKQKLK-NH2; C-terminus assumed)
EC50 [1]: 1.2 µM | IC50 [2, 7]: 44 µM

16 (Ac-PVLDEFRE[R5Me]LNE[R5Me]LEALKQKLK; not fully specified (C-terminus)) [compound 16]
IC50 ([2]; Measured at 2 h, read-out: LIPID SOLUBILIZATION IC50): 24 µM

CC(=O)N1CCC[C@H]1C(=O)N[C@H](C(=O)N[C@@H](CC(C)C)C(=O)N[C@@H](CC(=O)O)C(=O)N[C@@H](CCC(=O)O)C(=O)N[C@@H]1CCCCC=CCCCCC[C@@H](C(=O)N[C@@H](CC(C)C)C(=O)N[C@@H](CCC(=O)O)C(=O)N[C@@H](C)C(=O)N[C@@H](CC(C)C)C(=O)N[C@@H](CCCCN)C(=O)N[C@@H](CCC(N)=O)C(=O)N[C@@H](CCCCN)C(=O)N[C@@H](CC(C)C)C(=O)N[C@@H](CCCCN)C(N)=O)NC(=O)[C@H](CCC(=O)O)NC(=O)[C@H](CC(N)=O)NC(=O)[C@H](CC(C)C)NC(=O)[C@H](CCCCN)NC(=O)[C@H](CCC(=O)O)NC(=O)[C@H](CCCNC(=N)N)NC1=O)C(C)C [SEQ ID NO 14, PVLDER6HREKLNES7HLEALKQKLK (CYCLO R6H6-S7H13)] (Ac-PVLDE[X2]REKLNE[X3]LEALKQKLK-NH2; staple 6-13; C-terminus assumed)
EC50 [1]: 2 µM | IC50 [2, 7]: 43 µM

CC(=O)N1CCC[C@H]1C(=O)N[C@H](C(=O)N[C@@H](CC(C)C)C(=O)N[C@@H](CC(=O)O)C(=O)N[C@@H](CCC(=O)O)C(=O)N[C@@H](Cc1ccccc1)C(=O)N[C@@H](CCCNC(=N)N)C(=O)N[C@@H](CCC(=O)O)C(=O)N[C@@H]1CCCC=CCCC[C@H](C(=O)N[C@@H](CC(C)C)C(=O)N[C@@H](CCC(=O)O)C(=O)N[C@@H](C)C(=O)N[C@@H](CC(C)C)C(=O)N[C@@H](CCCCN)C(=O)N[C@@H](CCC(N)=O)C(=O)N[C@@H](CCCCN)C(=O)N[C@@H](CC(C)C)C(=O)N[C@@H](CCCCN)C(N)=O)NC(=O)[C@H](CCC(=O)O)NC(=O)[C@H](CC(N)=O)NC(=O)[C@H](CC(C)C)NC1=O)C(C)C [SEQ ID NO 12, PVLDEFRER5HLNER5HLEALKQKLK (CYCLO R5H9-R5H13)] (Ac-PVLDEFRE[dNle(6-ylidene)]LNE[dNle(6-ylidene)]LEALKQKLK-NH2; staple 9-13; C-terminus assumed)
EC50 [1]: 10 µM | IC50 [2, 7]: 60 µM

PVLDEFREKLNEELEALKQKLK [compound 1]
ABCA1-DEPENDENT CHOLESTEROL EFFLUX EC50 ([1]; RAW cells, cAMP-stimulated minus plain medium efflux): NOT ACTIVE | LIPID SOLUBILIZATION IC50 ([2]; Measured at 2 h): NOT ACTIVE

Ac-PVLDE[Ala(5-hexenyl)]REKLNE[dNle(6-vinyl)]LEALKQKLK [S7H [F6-E13]R6H OPEN]
EC50 in the cholesterol efflux assay [5]: 1.2 µM | ABCA1-dependent cholesterol efflux EC50 [6]: 1.3 µM

B1: CONS[(RS)12H3^13] (peptide)
peptide: Ac-PVLDEFREKLNE[12H3]LEALKQKLK
modifications: not fully specified (C-terminus); printed as PVLDEFREKLNE-(RS)12H3-LEALKQKLK; reading uncertain
EC50 in the RCT in vitro assay [5]: 0.2 to 0.4 µM

Ac-PVLDEFREKLNE[Ala(5-hexenyl)]LEALKQKLK [CONS[S7H^13]]
EC50 in the RCT in vitro assay [5]: 1.6 µM | EC50 in the cholesterol efflux assay [5]: 2.8 µM | ABCA1-dependent cholesterol efflux EC50 [6]: 2 µM
